# Experimental data taken from US20070128217A1 (priority 2003, published 2007).
# Tests used:
# [1] = test system: rabbit serum obtained by immunizing a rabbit with the SARS-CoV strain Frankfurt 1; assay type: binding; set-up: Binding of a rabbit serum to linear peptides / Binding of a rabbit serum to looped peptides / Rabbit serum linear peptides / Rabbit serum looped peptides / Binding of a rabbit serum to linear peptides of protein N of SARS-CoV Urbani (Rabbit serum linear peptides) / Binding of a rabbit serum to looped/cyclic peptides of protein N of SARS-CoV Urbani (Rabbit serum looped peptides): unit not given here
# [2] = test system: antibodies in sera from SARS patients (sera 1a, 1b, 2, 6, 37, 62, London, SARS-yellow, SARS-green); assay type: binding, human; set-up: Binding of serum 6 to linear peptides of protein X1 of SARS-CoV Urbani / Binding of serum 37 to linear peptides of protein X1 of SARS-CoV Urbani / Binding of serum 6 to looped/cyclic peptide (PEPSCAN-ELISA) / Binding of serum 37 to looped/cyclic peptide (PEPSCAN-ELISA) / Binding of serum 37 to looped/cyclic peptides of protein X1 of SARS-CoV Urbani / Binding of serum 6 to linear peptides of protein X2 / Binding of serum 37 to linear peptides of protein X2 / Binding of serum 37 to looped/cyclic peptides of protein X2 of SARS-CoV Urbani / Binding of serum 6 to linear peptides of protein M of SARS-CoV Urbani / Binding of serum 37 to linear peptides of protein M of SARS-CoV Urbani / Binding of serum 6 to looped/cyclic peptides of protein M of SARS-CoV Urbani / Binding of serum 37 to looped/cyclic peptides of protein M of SARS-CoV Urbani / Binding of serum 6 to linear peptides of protein X3 of SARS-CoV Urbani / Binding of serum 37 to linear peptides of protein X3 of SARS-CoV Urbani / Binding of serum 37 to looped/cyclic peptides of protein X3 of SARS-CoV Urbani / Binding of serum 6 to linear peptides of protein X4 of SARS-CoV Urbani / Binding of serum 37 to linear peptides of protein X4 of SARS-CoV Urbani / Binding of serum 37 to looped/cyclic peptides of protein X4 of SARS-CoV Urbani / Binding of serum 6 to linear peptides of protein X5 of SARS-CoV Urbani / Binding of serum 37 to linear peptides of protein X5 of SARS-CoV Urbani / Binding of serum 37 to looped/cyclic peptides of protein X5 of SARS-CoV Urbani / Binding of serum 6 to linear peptides of protein N of SARS-CoV Urbani / Binding of serum 37 to linear peptides of protein N of SARS-CoV Urbani / Binding of serum 6 to linear peptide (PEPSCAN-ELISA) / Binding of serum 1a to looped/cyclic peptides of protein N of SARS-CoV Urbani / Binding of serum 1b to looped/cyclic peptides of protein N of SARS-CoV Urbani / Binding of serum 2 to looped/cyclic peptides of protein N of SARS-CoV Urbani / Binding of serum 6 to looped/cyclic peptides of protein N of SARS-CoV Urbani / Binding of serum 37 to looped/cyclic peptides of protein N of SARS-CoV Urbani / Binding of serum 62 to looped/cyclic peptides of protein N of SARS-CoV Urbani / Binding of serum London to looped/cyclic peptides of protein N of SARS-CoV Urbani / Binding of serum SARS-green to looped/cyclic peptides of protein N of SARS-CoV Urbani: unit not given here
# [3] = test system: control sera (pooled serum of ten healthy LUMC hospital workers; commercial negative donor pooled serum from the Dutch bloodbank); assay type: binding, human; set-up: Binding of Control serum LUMC to linear peptides / Binding of Control serum Blood-bank to linear peptides / Binding of Control serum LUMC to looped peptides / Binding of Control Serum Blood-Bank to Looped peptides / Binding of Control serum LUMC to linear peptides of the protein M of SARS-CoV Urbani / Binding of Control serum Blood-bank to linear peptides of the protein M of SARS-CoV Urbani / Binding of Control serum LUMC to looped peptides of the protein M of SARS-CoV Urbani / Binding of Control Serum Blood-Bank to Looped peptides of the protein M of SARS-CoV Urbani: unit not given here
sequence,measurement,setting,value
FLYLYALIYFLQCIN,Binding of a rabbit serum to linear peptides,[1],0.1
same,Binding of a rabbit serum to looped peptides,[1],0.4
same,Binding of serum 1a to linear peptides of protein X1 of SARS-CoV Urbani,[2],0.7
same,Binding of serum 1a to looped/cyclic peptide (PEPSCAN-ELISA),[2],0.4
same,Binding of serum 1b to linear peptides of protein X1 of SARS-CoV Urbani,[2],0.5
same,Binding of serum 1b to looped/cyclic peptide (PEPSCAN-ELISA),[2],0.3
same,Binding of serum 2 to linear peptides of protein X1 of SARS-CoV Urbani,[2],0.5
same,Binding of serum 2 to looped/cyclic peptide (PEPSCAN-ELISA),[2],0.3
same,Binding of serum 6 to linear peptides of protein X1 of SARS-CoV Urbani,[2],0.4
same,Binding of serum 6 to looped/cyclic peptide (PEPSCAN-ELISA),[2],0.2
same,Binding of serum 37 to linear peptides of protein X1 of SARS-CoV Urbani,[2],0.5
same,Binding of serum 37 to looped/cyclic peptide (PEPSCAN-ELISA),[2],0.4
same,Binding of serum 62 to linear peptides of protein X1 of SARS-CoV Urbani,[2],0.6
same,Binding of serum 62 to looped/cyclic peptide (PEPSCAN-ELISA),[2],0.4
same,Binding of serum London to linear peptides of protein X1 of SARS-CoV Urbani,[2],0.2
same,Binding of serum London to looped/cyclic peptide (PEPSCAN-ELISA),[2],0.2
same,Binding of serum SARS-green to linear peptides of protein X1 of SARS-CoV Urbani,[2],0.2
same,Binding of serum SARS-green to looped/cyclic peptide (PEPSCAN-ELISA),[2],0.2
same,Binding of serum SARS-yellow to linear peptides of protein X1 of SARS-CoV Urbani,[2],0.5
same,Binding of serum SARS-yellow to looped/cyclic peptide (PEPSCAN-ELISA),[2],0.3
same,Binding of Control Serum Blood-Bank to Looped peptides,[3],0.5
same,Binding of Control serum Blood-bank to linear peptides,[3],0.5
same,Binding of Control serum LUMC to linear peptides,[3],0.5
same,Binding of Control serum LUMC to looped peptides,[3],0.4
QQWIQFMMSRRRLLA,Binding of a rabbit serum to linear peptides,[1],0.8
same,Binding of a rabbit serum to looped peptides,[1],1.5
same,Binding of serum 1a to linear peptides of protein X2,[2],0.6
same,Binding of serum 1a to looped/cyclic peptides of protein X2 of SARS-CoV Urbani,[2],0.6
same,Binding of serum 1b to linear peptides of protein X2,[2],0.4
same,Binding of serum 1b to looped/cyclic peptides of protein X2 of SARS-CoV Urbani,[2],0.5
same,Binding of serum 2 to linear peptides of protein X2,[2],0.4
same,Binding of serum 2 to looped/cyclic peptides of protein X2 of SARS-CoV Urbani,[2],0.6
same,Binding of serum 6 to linear peptides of protein X2,[2],0.8
same,Binding of serum 6 to looped/cyclic peptides of protein X2 of SARS-CoV Urbani,[2],0.4
same,Binding of serum 37 to linear peptides of protein X2,[2],0.6
same,Binding of serum 37 to looped/cyclic peptides of protein X2 of SARS-CoV Urbani,[2],0.6
same,Binding of serum 62 to linear peptides of protein X2,[2],0.6
same,Binding of serum 62 to looped/cyclic peptides of protein X2 of SARS-CoV Urbani,[2],0.8
same,Binding of serum London to linear peptides of protein X2,[2],0.5
same,Binding of serum London to looped/cyclic peptides of protein X2 of SARS-CoV Urbani,[2],0.3
same,Binding of serum SARS-green to linear peptides of protein X2,[2],0.6
same,Binding of serum SARS-green to looped/cyclic peptides of protein X2 of SARS-CoV Urbani,[2],0.5
same,Binding of serum SARS-yellow to linear peptides of protein X2,[2],0.6
same,Binding of serum SARS-yellow to looped/cyclic peptides of protein X2 of SARS-CoV Urbani,[2],0.4
same,Binding of Control Serum Blood-Bank to Looped peptides,[3],0.7
same,Binding of Control serum Blood-bank to linear peptides,[3],0.8
same,Binding of Control serum LUMC to linear peptides,[3],0.6
same,Binding of Control serum LUMC to looped peptides,[3],0.5
FALTCTSTHFAFACA,Rabbit serum linear peptides,[1],0.6
same,Rabbit serum looped peptides,[1],0.4
same,Binding of serum 1a to linear peptides of protein X4 of SARS-CoV Urbani,[2],0.7
same,Binding of serum 1a to looped/cyclic peptides of protein X4 of SARS-CoV Urbani,[2],0.8
same,Binding of serum 1b to linear peptides of protein X4 of SARS-CoV Urbani,[2],0.5
same,Binding of serum 1b to looped/cyclic peptides of protein X4 of SARS-CoV Urbani,[2],0.5
same,Binding of serum 2 to linear peptides of protein X4 of SARS-CoV Urbani,[2],0.4
same,Binding of serum 2 to looped/cyclic peptides of protein X4 of SARS-CoV Urbani,[2],0.7
same,Binding of serum 6 to linear peptides of protein X4 of SARS-CoV Urbani,[2],0.5
same,Binding of serum 6 to looped/cyclic peptides of protein X4 of SARS-CoV Urbani,[2],0.5
same,Binding of serum 37 to linear peptides of protein X4 of SARS-CoV Urbani,[2],0.7
same,Binding of serum 37 to looped/cyclic peptides of protein X4 of SARS-CoV Urbani,[2],0.6
same,Binding of serum 62 to linear peptides of protein X4 of SARS-CoV Urbani,[2],0.7
same,Binding of serum 62 to looped/cyclic peptides of protein X4 of SARS-CoV Urbani,[2],0.7
same,Binding of serum London to linear peptides of protein X4 of SARS-CoV Urbani,[2],0.7
same,Binding of serum London to looped/cyclic peptides of protein X4 of SARS-CoV Urbani,[2],0.3
same,Binding of serum SARS-green to linear peptides of protein X4 of SARS-CoV Urbani,[2],0.5
same,Binding of serum SARS-green to looped/cyclic peptides of protein X4 of SARS-CoV Urbani,[2],0.5
same,Binding of serum SARS-yellow to linear peptides of protein X4 of SARS-CoV Urbani,[2],0.6
same,Binding of serum SARS-yellow to looped/cyclic peptides of protein X4 of SARS-CoV Urbani,[2],0.7
same,Binding of Control Serum Blood-Bank to Looped peptides,[3],0.7
same,Binding of Control serum Blood-bank to linear peptides,[3],0.6
same,Binding of Control serum LUMC to linear peptides,[3],0.6
same,Binding of Control serum LUMC to looped peptides,[3],0.6
